Laboratory results: US8450494B2, “Disubstituted benzamide derivatives as glucokinase (GK) activators” (Cadila Healthcare Limited, priority 2010, dated 2013)

Biological target: T1, glucokinase (GK) enzyme (Homo sapiens, UniProt P35557)
T1 sequence (P35557 1-465): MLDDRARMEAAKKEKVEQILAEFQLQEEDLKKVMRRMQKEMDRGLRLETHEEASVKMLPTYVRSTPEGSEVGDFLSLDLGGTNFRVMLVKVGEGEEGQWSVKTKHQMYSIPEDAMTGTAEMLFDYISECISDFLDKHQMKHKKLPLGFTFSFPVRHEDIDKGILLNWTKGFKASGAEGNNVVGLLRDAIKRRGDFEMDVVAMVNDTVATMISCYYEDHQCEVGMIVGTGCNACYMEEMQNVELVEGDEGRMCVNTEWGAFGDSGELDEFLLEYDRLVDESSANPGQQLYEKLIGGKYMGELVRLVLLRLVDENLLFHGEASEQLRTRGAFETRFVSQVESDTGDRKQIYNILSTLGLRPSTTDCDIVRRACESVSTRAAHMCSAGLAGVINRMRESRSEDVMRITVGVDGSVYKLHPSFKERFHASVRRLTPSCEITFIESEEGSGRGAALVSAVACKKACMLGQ
Assay: In-vitro glucokinase (GK) enzyme activation assay (coupled with glucose-6-phosphate dehydrogenase, absorbance at 340)
Format: biochemical
Details: glucose 2.5 mM, ATP 1 mM; for activity at 0.1 µM / activity at 1 µM / activity at 5 µM / activity at 10 µM: read-out: % of GK activity wrt DMSO
Experimental: The compound of the invention was incubated with glucokinase (GK) enzyme (0.2 units) for 10 minutes in assay buffer at 26° C. After incubation, addition of glucose-6-phosphate dehydrogenase (2.5 units), ATP (1 mM) and glucose (2.5 mM). Absorbance is measured at 340 nm for 15 minutes with 10 second interval using UV transparent plate in kinetic mode on Spectramax-190 at 30° C.

| activity at 0.1 µM (compound 0.1 uM) [%] | activity at 1 µM (compound 1 uM) [%] | activity at 5 µM (compound 5 uM) [%] | activity at 10 µM (compound 10 uM) [%] | % of GK activity wrt DMSO (compound 0.1 uM) [%] | % of GK activity wrt DMSO (compound 1 uM) [%] | % of GK activity wrt DMSO (compound 5 uM) [%] | % of GK activity wrt DMSO (compound 10 uM) [%] | SMILES |
| --- | --- | --- | --- | --- | --- | --- | --- | --- |
| 101 | 144 | 201 | 205 |  |  |  |  | CCOC(=O)c1cnc(NC(=O)c2cc(Oc3ccc(-c4nnc(C)o4)cc3)cc(OC(C)COC)c2)s1 (stereo not drawn) [Example 2.16, Ethyl 2-{3-[(1-methoxypropan-2-yl)oxy]-5-[4-(5-methyl-1,3,4-oxadiazol-2-yl)phenoxy]benzamido}thiazole-5-carboxylate] |
| 113 | 170 | 306 | 350 |  |  |  |  | COCC(C)Oc1cc(Oc2ccc(-c3nnc(C)o3)cc2)cc(C(=O)Nc2nc(C(=O)O)cs2)c1 (stereo not drawn) [Example 2.17, 2-{3-[(1-Methoxypropan-2-yl)oxy]-5-[4-(5-methyl-1,3,4-oxadiazol-2-yl)phenoxy]benzamido}thiazole-4-carboxylic acid] |
| 105 | 149 | 251 | 260 |  |  |  |  | COCC(C)Oc1cc(Oc2ccc(-c3nnc(C)o3)cc2)cc(C(=O)Nc2ncc(C(=O)O)s2)c1 (stereo not drawn) [Example 2.18, 2-{3-[(1-Methoxypropan-2-yl)oxy]-5-[4-(5-methyl-1,3,4-oxadiazol-2-yl)phenoxy]benzamido}thiazole-5-carboxylic acid] |
| 106 | 188 | 318 | 344 |  |  |  |  | CCOC(=O)c1csc(NC(=O)c2cc(Oc3ccc(-c4nnc(C)o4)cc3)cc(OC(C)COC)c2)n1 (stereo not drawn) [Example 2.19, Ethyl 2-{3-[(1-methoxypropan-2-yl)oxy]-5-[4-(5-methyl-1,3,4-oxadiazol-2-yl)phenoxy]benzamido}thiazole-4-carboxylate] |
| 251 | 405 | 436 | 408 |  |  |  |  | COC[C@H](C)Oc1cc(Oc2ccc(-c3nnc(C)o3)cc2)cc(C(=O)Nc2nc(C)cs2)c1 [Example 2.20, (S)-3-((1-Methoxypropan-2-yl)oxy)-5-(4-(5-methyl-1,3,4-oxadiazol-2-yl)phenoxy)-N-(4-methylthiazol-2-yl)benzamide] |
| 179 | 287 | 318 | 293 |  |  |  |  | COCC(C)Oc1cc(Oc2cccc(-c3nnc(C)o3)c2)cc(C(=O)Nc2nccs2)c1 (stereo not drawn) [Example 2.21, 3-((1-Methoxypropan-2-yl)oxy)-5-(3-(5-methyl-1,3,4-oxadiazol-2-yl)phenoxy)-N-(thiazole-2-yl)benzamide] |
| 153 | 323 | 436 | 418 |  |  |  |  | COCC(C)Oc1cc(Oc2ccc(-c3nnc(CC(C)C)o3)cc2)cc(C(=O)Nc2nccs2)c1 (stereo not drawn) [Example 2.22, 3-(4-(5-Isobutyl-1,3,4-oxadiazol-2-yl)phenoxy)-5-((1-methoxypropan-2-yl)oxy)-N-(thiazol-2-yl)benzamide] |
| 224 | 384 | 439 | 418 |  |  |  |  | CCc1nnc(-c2ccc(Oc3cc(OC(C)COC)cc(C(=O)Nc4nccs4)c3)cc2)o1 (stereo not drawn) [Example 2.25, 3-(4-(5-Ethyl-1,3,4-oxadiazol-2-yl)phenoxy)-5-((1-methoxypropan-2-yl)oxy)-N-(thiazol-2-yl)benzamide] |
| 223 | 450 | 493 | 488 |  |  |  |  | COCC(C)Oc1cc(Oc2ccc(-c3nnc(C4CC4)o3)cc2)cc(C(=O)Nc2nccs2)c1 (stereo not drawn) [Example 2.28, 3-(4-(5-Cyclopropyl-1,3,4-oxadiazol-2-yl)phenoxy)-5-((1-methoxypropan-2-yl)oxy)-N-(thiazol-2-yl)benzamide] |
|  |  |  |  | 252.3 | 433.6 | 518.5 | 470.8 | COCC(C)Oc1cc(Oc2ccc(-c3nnc(C4CCCC4)o3)cc2)cc(C(=O)Nc2nccs2)c1 (stereo not drawn) [Example 2.31] |
| 210 | 271 | 316 | 302 |  |  |  |  | COCC(C)Oc1cc(Oc2ccc(-c3nnc(C)o3)cc2)cc(C(=O)Nc2ncc(Br)s2)c1 (stereo not drawn) [Example 2.36, N-(5-Bromothiazol-2-yl)-3-((1-methoxypropan-2-yl)oxy)-5-(4-(5-methyl-1,3,4-oxadiazol-2-yl)phenoxy)benzamide] |
| 126 | 223 | 306 | 333 |  |  |  |  | COC[C@H](C)Oc1cc(Oc2ccc(-c3nnc(C)o3)cc2)cc(C(=O)Nc2ncc(C#N)s2)c1 [Example 2.42, (S)—N-(5-Cyanothiazol-2-yl)-3-((1-methoxypropan-2-yl)oxy)-5-(4-(5-methyl-1,3,4-oxadiazol-2-yl)phenoxy)benzamide] |
